The test addresses T1, F508del CFTR (Homo sapiens, UniProt P13569, DEL508-508).
T1 construct: Primary CF airway epithelial cells were obtained from the UNC Cystic Fibrosis Tissue Procurement and Cell Culture Core; host or cells: primary CF airway epithelial cells
The test is described as follows: Equivalent current assay in primary CF airway epithelial cells (Corrector Activity, NAUC normalized to 3 μM VX809). The settings on record: NAUC as % of positive control (VX-809). The test is classed as cell-based. In outline:
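Differentiated primary CF airway cells treated basolaterally 24 h at 37° C with compound (0.1% DMSO). Equivalent current recorded after 5 μM benzamil, stimulation with 10 μM forskolin plus 1 μM VX-770 or 3 μM FDL176, and block by 20 μM CFTR-172; vehicle-subtracted AUC normalized to 3 μM VX809; EC50 from sigmoid fit, Hill slope 1.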
T1 sequence (P13569 with tags, fused parts or gaps DEL508-508): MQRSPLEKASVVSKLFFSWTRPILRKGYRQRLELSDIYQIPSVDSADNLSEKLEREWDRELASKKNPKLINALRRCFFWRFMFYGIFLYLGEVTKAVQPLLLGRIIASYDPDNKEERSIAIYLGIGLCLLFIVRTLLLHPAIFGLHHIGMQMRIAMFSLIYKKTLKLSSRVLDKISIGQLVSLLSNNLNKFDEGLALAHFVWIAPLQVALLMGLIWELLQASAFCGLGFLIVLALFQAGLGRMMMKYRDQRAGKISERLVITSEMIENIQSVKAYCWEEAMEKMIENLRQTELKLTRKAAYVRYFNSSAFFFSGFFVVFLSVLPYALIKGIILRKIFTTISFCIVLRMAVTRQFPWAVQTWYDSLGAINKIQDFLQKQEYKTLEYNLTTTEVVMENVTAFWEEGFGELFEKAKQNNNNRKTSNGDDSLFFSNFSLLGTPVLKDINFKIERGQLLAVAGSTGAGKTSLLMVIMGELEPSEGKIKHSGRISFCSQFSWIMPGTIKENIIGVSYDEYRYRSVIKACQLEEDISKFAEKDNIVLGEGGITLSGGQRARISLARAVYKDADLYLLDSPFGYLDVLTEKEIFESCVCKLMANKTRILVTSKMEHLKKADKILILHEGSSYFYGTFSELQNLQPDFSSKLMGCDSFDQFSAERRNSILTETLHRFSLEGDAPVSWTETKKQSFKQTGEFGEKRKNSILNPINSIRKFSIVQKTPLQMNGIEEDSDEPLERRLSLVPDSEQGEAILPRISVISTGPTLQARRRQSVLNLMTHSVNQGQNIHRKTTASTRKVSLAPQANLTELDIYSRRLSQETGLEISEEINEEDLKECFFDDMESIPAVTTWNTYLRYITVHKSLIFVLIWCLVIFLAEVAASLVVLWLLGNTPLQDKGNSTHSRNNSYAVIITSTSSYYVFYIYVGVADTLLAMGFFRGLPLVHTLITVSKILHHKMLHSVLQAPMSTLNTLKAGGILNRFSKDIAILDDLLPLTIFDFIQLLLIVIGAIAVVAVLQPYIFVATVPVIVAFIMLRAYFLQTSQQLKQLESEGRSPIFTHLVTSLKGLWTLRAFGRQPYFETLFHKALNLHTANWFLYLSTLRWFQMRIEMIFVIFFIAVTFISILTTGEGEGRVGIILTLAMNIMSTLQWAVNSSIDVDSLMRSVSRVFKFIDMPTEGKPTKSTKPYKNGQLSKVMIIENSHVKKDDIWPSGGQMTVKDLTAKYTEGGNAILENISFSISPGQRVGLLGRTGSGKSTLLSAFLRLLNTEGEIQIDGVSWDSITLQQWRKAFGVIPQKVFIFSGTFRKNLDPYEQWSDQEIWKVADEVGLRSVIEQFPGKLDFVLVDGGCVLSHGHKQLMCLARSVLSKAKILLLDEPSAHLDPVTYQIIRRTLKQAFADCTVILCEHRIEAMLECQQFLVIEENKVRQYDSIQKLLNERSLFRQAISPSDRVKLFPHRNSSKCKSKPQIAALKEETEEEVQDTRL
For `CN(C(=O)Cn1nc(-c2cccc(C#N)c2)c2oc(C(C)(C)O)cc2c1=O)c1ccc2c(c1)OC(F)(F)O2` [Example 204], the “Corr Activity (NAUC)” value is “+++ (NAUC>70% of positive control)”.
Turning to `CN(C(=O)Cn1nc(-c2cccc(Cl)c2)c2oc(C(=O)NC(C)(C)C)cc2c1=O)c1ccc2c(c1)OC(F)(F)O2` [Example 205, N-(tert-butyl)-7-(3-chlorophenyl)-5-(2-((2,2-difluorobenzo[d][1,3]dioxol-5-yl)(methyl)amino)-2-oxoethyl)-4-oxo-4,5-dihydrofuro[2,3-d]pyridazine-2-carboxamide], the “Corr Activity (NAUC)” value was “+++ (NAUC>70% of positive control)”.
`CCN(C(=O)Cn1nc(-c2cccc(C#N)c2)c2oc(C(=O)NC3(C)CC3)cc2c1=O)c1ccc2c(c1)OC(F)(F)O2` [Example 206]: the “Corr Activity (NAUC)” value was “++ (NAUC 70-40% of positive control)”.
On to `CCN(C(=O)Cn1nc(-c2cccc(C#N)c2)c2oc(C(=O)N3CCCC34CC4)cc2c1=O)c1ccc2c(c1)OC(F)(F)O2` [Example 207], for which the “Corr Activity (NAUC)” value was “+++ (NAUC>70% of positive control)”.
As for `CCN(C(=O)Cn1nc(-c2cccc(C#N)c2)c2oc(C(=O)N(C)C(C)(C)C)cc2c1=O)c1ccc2c(c1)OC(F)(F)O2` [Example 208], the entry is “+++ (NAUC>70% of positive control)”.
Take `CN(C(=O)Cn1nc(-c2cccc(Cl)c2)c2oc(C(=O)NCCO)cc2c1=O)c1ccc2c(c1)OC(F)(F)O2` [Example 212]: the “Corr Activity (NAUC)” value is given as “+ (NAUC<40% of positive control)”.
With `CN(C(=O)Cn1nc(-c2cc(C#N)cc(C(=O)O)c2)c2occc2c1=O)c1ccc2c(c1)OC(F)(F)O2` [Example 213, 3-cyano-5-(5-(2-((2,2-difluorobenzo[d][1,3]dioxol-5-yl)(methyl)amino)-2-oxoethyl)-4-oxo-4,5-dihydrofuro[2,3-d]pyridazin-7-yl)benzoic acid], the “Corr Activity (NAUC)” value is “+ (NAUC<40% of positive control)”.
Take `CCN(C(=O)Cn1nc(-c2cc(C#N)cc(OCCO)c2)c2occc2c1=O)c1ccc2c(c1)OC(F)(F)O2` [Example 214]: the “Corr Activity (NAUC)” value is “++ (NAUC 70-40% of positive control)”.
As for `CN(C(=O)Cn1nc(-c2cc(F)cc(C#N)c2)c2[nH]cnc2c1=O)c1ccc2c(c1)OC(F)(F)O2` [Example 216, 2-(7-(3-cyano-5-fluorophenyl)-4-oxo-1,4-dihydro-5H-imidazo[4,5-d]pyridazin-5-yl)-N-(2,2-difluorobenzo[d][1,3]dioxol-5-yl)-N-methylacetamide], the “Corr Activity (NAUC)” value is “+++ (NAUC>70% of positive control)”.
As to `Cc1nc2ccc(N(C)C(=O)Cn3nc(-c4cccc(Cl)c4)c4oc(C5CC5)cc4c3=O)cc2o1` [Example 218], the “Corr Activity (NAUC)” value is reported as “+++ (NAUC>70% of positive control)”.
For `CN(C(=O)Cn1nc(-c2cccc(Cl)c2)c2oc(C3CC3)cc2c1=O)c1ccc2c(c1)OC(F)(F)O2` [Example 219], the “Corr Activity (NAUC)” value was “+++ (NAUC>70% of positive control)”.
Consider `CN(C(=O)Cn1nc(-c2cccc(C#N)c2)c2oc(C3CC3)cc2c1=O)c1ccc2c(c1)OC(F)(F)O2` [Example 220], for which the “Corr Activity (NAUC)” value is reported as “++ (NAUC 70-40% of positive control)”.
Regarding `CCN(C(=O)Cn1nc(-c2cc(Cl)cc(Cl)c2)c2oc(C3CC3)cc2c1=O)c1ccc2c(c1)OC(F)(F)O2` [Example 221], the “Corr Activity (NAUC)” value is recorded as “+++ (NAUC>70% of positive control)”.
Regarding `CCN(C(=O)Cn1nc(-c2cc(F)cc(F)c2)c2oc(C3CC3)cc2c1=O)c1ccc2c(c1)OC(F)(F)O2` [Example 222], the “Corr Activity (NAUC)” value was “+++ (NAUC>70% of positive control)”.
For the molecule `CCN(C(=O)Cn1nc(-c2cc(F)cc(Cl)c2)c2oc(C3CC3)cc2c1=O)c1ccc2c(c1)OC(F)(F)O2` [Example 223], the “Corr Activity (NAUC)” value is on record as “+++ (NAUC>70% of positive control)”.
For `CCN(C(=O)Cn1nc(-c2cc(Cl)cc(C#N)c2)c2oc(C3CC3)cc2c1=O)c1ccc2c(c1)OC(F)(F)O2` [Example 224], the “Corr Activity (NAUC)” value is given as “+++ (NAUC>70% of positive control)”.
For `CCN(C(=O)Cn1nc(-c2cc(F)cc(C#N)c2)c2oc(C3CC3)cc2c1=O)c1ccc2c(c1)OC(F)(F)O2` [Example 225] the value was “+++ (NAUC>70% of positive control)”.

The values are drawn from patent US20220402925A1, “COMPOUNDS AND METHODS FOR THE TREATMENT OF CYSTIC FIBROSIS” (Flatley Discovery Lab, LLC, priority 2019, published 2022).
